Source: article PMC9271048, “Probing strigolactone perception mechanisms with rationally designed small-molecule agonists stimulating germination of root parasitic weeds” (Nature Communications, 2022)
Read-outs that look alike come from different tables or passages of the source.

Columns and labels:
ShHTL7 [1] = target: T1, ShHTL7 (Striga hermonthica, UniProt A0A0M3PNA2); experiment: biochemical; assay type: binding
Procedure: We used a sensitive, high-throughput Surface plasmon resonance (SPR) method to examine the binding affinities of the 51 candidates to the recombinant ShHTL7 protein, which was immobilized on the CM5 sensor chip. rac-GR24 was used as a positive control.
The interactions of small molecules with recombinant ShHTL7 were evaluated using the Biacore T200 system (GE Healthcare, USA) at 25 °C[47]. The purified ShHTL7 protein was immobilized on a CM5 sensor chip using the standard amine coupling procedure. […] PBS-P (10 mM phosphate buffer, 2.7 mM KCl, 137 mM NaCl, 0.05% Surfactant P20) containing 0.5% DMSO was used as the running buffer. For the screening experiments, candidates with different structures at 50 μM in the running buffer were injected individually at a flow rate of 30 μL min^−1. For binding affinity studies, compounds with different concentrations in running buffer were used. During the experiments, both the contact and dissociation times were set as 1 min. Data analysis was performed using the Biacore Evaluation Software (T200 Version 2.0). The affinity values (KD) were obtained by the kinetics analysis or the steady-state affinity method.

ShHTL7 [2] = target: T1, ShHTL7; experiment: Lineweaver-Burk plot analysis of ShHTL7 inhibition (YLG); assay type: biochemical; conditions: ShHTL7-mediated hydrolysis of YLG; no significant change of Vmax
Procedure: 0.1 Å width; second, the number of data points of each bin was counted; third, the density of each bin is calculated using the number of D5′C-OG-DNE2-HG data points fall in the corresponding bin being divided by the total number of the distance-distance data points; last, the Z(A,D) (shown in Equation 1) was constructed by fitting the data with the two-dimensional Gaussian function using the non-linear surface fitting methods in Origin Lab.
In this equation, Z is the conformation probability density of D5′C-OG and DNE2-HG in the calculation system. µ is the mean of the normal distribution. σ is the standard deviation.
The PPC of each system was calculated using the bivariate integration of the corresponding CPDF over the interval 1.5–3.8 Å for D5′C-OG, and 1.6–3.5 Å for DNE2-HG with Equation 2 using Matlab software (The Math Works, Natick, MA).
The final PPC value of each system was the averaged data of every 200 ns in the MD simulation.
The structure figures were analyzed by PYMOL software8.
The structures of (S)-4a were constructed and optimized by Sybyl 6.9 (Tripos Inc., St. Louis, MO).
DFT calculations of (S)-4a were performed by Gaussian 09 program package at b3lyp/6-31g(d) level9.
The results were analyzed by GaussView 5.0.
Determination of the Inhibition Model
For Lineweaver-Burk plot analysis, the competitive inhibition of ShHTL7 by compounds 1, 2g, and 2h was performed by using YLG as the substrate at 25 °C. The excitation and emission […]
Supplementary Fig. 7. Lineweaver−Burk plots for the inhibition of ShHTL7 by compounds 1 (a), 2g (b), and 2h (c). Error bar indicates SD (n = 3 biologically independent experiments).
(§1) (1 picture or pasted object on this page, not shown here)
[1] Yao, R. et al. DWARF14 is a non-canonical hormone receptor for strigolactone. Nature 536, 469– […]
[2] de Saint Germain, A. et al. An histidine covalent receptor and butenolide complex mediates strigolactone perception.
[3] […]
A: We have evaluated inhibitory kinetics of the three representative compounds 1, 2g, and 2h on ShHTL7-mediated hydrolysis of YLG. […]

ShHTL7 [3] = target: T1, ShHTL7; experiment: ShHTL7-hydrolysis reaction analysis (HPLC); assay type: biochemical; conditions: authors' response to reviewer
Procedure: Compounds 4a, (R)- and (S)-4a, 4g-i, and rac-GR24 were dissolved in DMSO and prepared as stock solution ([…]) just before use. A 200 μL of the reaction solution consisting of PBS buffer (pH 7.3), 10 μM samples, and 10 μg recombinant ShHTL7 or its mutants was incubated at 30 °C for 30 min; with the reaction solution (200 μL) containing PBS buffer (pH 7.3) and 10 μM samples as the blank control[40],[52]. Subsequently, the reaction was terminated by adding 200 μL of methanol, and then the reaction mixture was shaken for 10 s and centrifuged at 5310 × g for 60 s. The supernatant was filtered and the remaining amount of samples was analyzed by HPLC. The relative percentages of hydrolysis were obtained by using the amount of compounds in blank control as reference.
Supplementary Fig. 11. Hydrolysis of 4a, (R)-4a, (S)-4a, 4g-i, and rac-GR24 by ShHTL7 at 30 °C for 30 min. The remaining amounts of compounds in recombinant ShHTL7 protein and buffer solution were determined by HPLC analysis. The relative percentages of hydrolysis were calculated by using the amount of compounds in the buffer as reference. The error bar indicates SD (n = 3 biologically independent experiments).
as §1

ShHTL7 [4] = target: T1, ShHTL7; experiment: Competitive inhibition of ShHTL7 with Yoshimulactone Green (YLG) as substrate; assay type: biochemical; conditions: YLG used as the substrate, means ± SD, n = 3
Procedure: Based on the structural feature of the lead compound 2h, we selected three regions to perform further modification (Supplementary Fig. 6), to try to further improve bioactivity. Insertion of a carbonyl group between the bicyclo[2.2.1]hept-5-en-2-yl group and the piperazine ring was detrimental to binding affinity (Supplementary Fig. 6, region A). Removal of an oxygen atom in region B was found unfavorable to binding affinity as well. Therefore, we focused on modifying the benzene ring (region C) for 2h. A series of compounds with different groups at region C was synthesized (Supplementary Scheme 1). […] As SPR just measures the binding ability, another independent assay by using Yoshimulactone Green (YLG) as the fluorescent substrate was performed to determine the half-maximal inhibitory concentration (IC50) of these compounds against ShHTL7[22].
The excitation and emission wavelengths of YLG are 480 and 520 nm, respectively. We used a fluorescence spectrophotometer (CARY Eclipse) to detect the fluorescence intensity change of YLG during the enzymatic hydrolysis assay process. All the testing compounds and YLG were dissolved in DMSO and prepared as stock solutions just before use. […] The changes of fluorescence at 520 nm of each well were recorded every 1 min for 30 min. Using the reaction mixture without adding enzyme and tested compounds as the background control. After subtracting the background hydrolysis, a linear fluorescence increase in 8 min was used for further inspection. The IC50 values were determined via fitting relative inhibition percentages with the varying concentrations of compounds in Microsoft Excel.

P. aegyptiaca seeds = experiment: P. aegyptiaca seed germination assay; assay type: in vivo, Phelipanche aegyptiaca; conditions: for germination of P. aegyptiaca seeds, source data average: 10 μM, Fig. 1d source data, average of 3; for P. aegyptiaca germination(%): Supplementary Table 1, compounds tested at 10 μM, means ± SD, n = 3
Procedure: P. aegyptiaca seeds were harvested from Xinjiang province, China in 2017. The seeds were surface sterilized using 1% NaClO solution for 2 min and then washed with distilled water six times. For seed germination assay, about 20 pieces of glass fiber-filter paper discs (15 mm diameter, Whatman GF/B) were placed separately on two layers of filter papers (9 cm diameter, Whatman) in a Petri dish. Five milliliters of distilled water was added to each Petri dish to wet the papers. Approximately 40–90 sterilized seeds were spread onto each glass fiber-filter paper disc. After the seeds were conditioned in the dark at 25 °C for 4 days[48], glass fiber-filter paper discs were blotted dry on filter papers (9 cm) and transferred to the wells of 24-well cell culture plates. The testing compounds were dissolved in acetone and diluted with H2O (VH2O/Vacetone = 999/1) just before use[49]. rac-GR24 and 1‰ acetone solution were used as positive and negative controls, respectively. One hundred microliters of the test solution was added to each well of the plates, and all treatments were performed in three biological repeats. The plates were sealed and incubated in the dark at 25 °C for a week. The experiments were performed at least three times. The germinated seeds were observed by using an electronic magnifier at ×20 magnification.

T1 sequence (A0A0M3PNA2 entry or part of it): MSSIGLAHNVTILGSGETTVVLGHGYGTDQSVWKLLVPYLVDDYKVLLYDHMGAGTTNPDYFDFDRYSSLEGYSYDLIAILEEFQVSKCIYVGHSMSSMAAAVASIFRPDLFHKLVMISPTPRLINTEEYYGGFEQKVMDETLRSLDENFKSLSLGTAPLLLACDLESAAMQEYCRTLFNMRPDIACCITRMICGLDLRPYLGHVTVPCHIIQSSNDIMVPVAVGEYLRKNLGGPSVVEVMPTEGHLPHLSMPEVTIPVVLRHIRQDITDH

| Structure (SMILES) | Kd (ShHTL7 [1]) [µM] | inhibition manner (Lineweaver-Burk plot) (ShHTL7 [2]) | hydrolysis by ShHTL7 (ShHTL7 [3]) | IC50 (ShHTL7 [4]; IC50 (Supplementary Table 1)) [µM] | germination of P. aegyptiaca seeds, source data average (P. aegyptiaca seeds) [%] | P. aegyptiaca germination(%) (P. aegyptiaca seeds) | IC50 (ShHTL7 [4]; read-out: IC50 (Supplementary Table 1)) [µM] |
| --- | --- | --- | --- | --- | --- | --- | --- |
| O=C(COc1ccc(Cl)cc1)N1CCN(CC2CC=CCC2)CC1 (stereo not shown) [2g] | 1.02 ± 0.11 | in a competitive manner | could not be hydrolyzed by ShHTL7 | – | – | – | – |
| Cc1ccc(OCC(=O)N2CCN(CC3CC4C=CC3C4)CC2)cc1 (stereo not shown) [2h] | 0.96 | in a competitive manner | – | 22 ± 4.97 | 25.888 | 27.4 | – |
| O=C(c1ccc(F)cc1)N1CCN(CC2CC=CCC2)CC1 (stereo not shown) [compound 1, (4-(cyclohex-3-en-1-ylmethyl)piperazin-1-yl)(4-fluorophenyl)methanone] | 13.3 ± 1.4 | in a competitive manner | – | – | 40.0744 | 39.4 | 15.9 ± 1.47 |
